Experimental findings from patent US20230117034A1, “PYRAZOLOTRIAZINES” (Bayer Aktiengesellschaft, priority 2019, published 2023) are described below.

The test system of assay [1] is CAL-120, human breast adenocarcinoma cells. Put plainly: Proliferation assay CAL-120 (crystal violet, 4 days). It is filed as cell-based. The conditions noted are these: Homo sapiens, CAL-120, 96 h, CAL-120 cells, median, read-out: Prolif-CAL-120, IC50-[mol/l] (median). An outline of the steps:
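Crystal violet proliferation read-out after 4 days of compound exposure (0.01-10 µmol/L; solvent 0.1% DMSO). Extinction at 595 nm, set between zero-point (0%) and vehicle (100%), fitted with 4 parameters to give IC50.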

Assay [2] concerns the target CDK12/CycK (Homo sapiens, UniProt Q9NYV4). Put plainly: CDK12/CycK high ATP kinase assay (TR-FRET, 2 mM ATP). It is filed as biochemical. Conditions: 2 mM ATP (high ATP); median; read-out: CDK12/CyclinK, 2 mM ATP (high ATP), IC50-[mol/l] (median). Put shortly: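 Read-out is TR-FRET (Eu-anti-rabbit IgG, anti-phospho-c-Myc Ser62 antibody, streptavidin-XL665) after EDTA stop. Reaction ran 60 min at 22 °C using 1 µM biotin-peptide and high ATP (2 mM) with roughly 0.75 nM recombinant CDK12/CycK, after 15 min compound pre-binding; normalised emission ratios yield IC50.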

CDK12/CycK, sequence (Q9NYV4 with tags, fused parts or gaps): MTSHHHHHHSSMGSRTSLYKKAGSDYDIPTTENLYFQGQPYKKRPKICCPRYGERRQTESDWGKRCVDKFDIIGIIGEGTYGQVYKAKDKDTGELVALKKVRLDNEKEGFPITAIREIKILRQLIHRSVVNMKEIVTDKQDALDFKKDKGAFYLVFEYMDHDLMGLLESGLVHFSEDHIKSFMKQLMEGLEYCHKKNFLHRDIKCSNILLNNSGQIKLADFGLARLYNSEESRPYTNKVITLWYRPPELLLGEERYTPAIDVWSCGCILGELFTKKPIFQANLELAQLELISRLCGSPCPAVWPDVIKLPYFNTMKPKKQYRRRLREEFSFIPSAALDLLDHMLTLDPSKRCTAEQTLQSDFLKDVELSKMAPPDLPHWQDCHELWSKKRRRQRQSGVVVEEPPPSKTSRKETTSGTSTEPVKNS
CDK12/CycK, sequence (O75909 1-300 partner limits assumed): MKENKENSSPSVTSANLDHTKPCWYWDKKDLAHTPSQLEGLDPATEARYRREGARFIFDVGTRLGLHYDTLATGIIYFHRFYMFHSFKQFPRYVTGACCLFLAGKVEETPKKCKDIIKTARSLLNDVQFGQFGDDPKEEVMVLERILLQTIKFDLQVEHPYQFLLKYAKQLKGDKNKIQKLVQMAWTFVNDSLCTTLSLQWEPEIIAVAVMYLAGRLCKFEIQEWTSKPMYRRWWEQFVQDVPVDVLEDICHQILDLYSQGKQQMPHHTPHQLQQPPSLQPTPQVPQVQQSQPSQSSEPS

For `C[C@@H]1CN(c2nc(NCc3nnc(-c4ccccc4)[nH]3)n3ncc(Br)c3n2)C[C@H](C)N1C` [Example 125, 8-bromo-N-[(5-phenyl-4H-1,2,4-triazol-3-yl)methyl]-2-[(3R,5S)-3,4,5-trimethylpiperazin-1-yl]pyrazolo[1,5-a][1,3,5]triazin-4-amine], the IC50 in assay [1] turned out to be 53.1 nM; in assay [2] it was 10900 nM.

Take `OCC1CCN1c1nc(NCc2nc3ccccc3[nH]2)n2ncc(Br)c2n1` (stereo not drawn) [Example 147, [1-[4-(1H-benzimidazol-2-ylmethylamino)-8-bromo-pyrazolo[1,5-a][1,3,5]triazin-2-yl]azetidin-2-yl]methanol]: the IC50 in assay [1] was 310 nM; in assay [2], 4970 nM.

`CN1CCN(c2nc(NCc3nc4c(F)cccc4[nH]3)n3ncc(C4CC4)c3n2)CC1` [Example 165, 8-cyclopropyl-N-[(4-fluoro-1H-benzimidazol-2-yl)methyl]-2-(4-methylpiperazin-1-yl)pyrazolo[1,5-a][1,3,5]triazin-4-amine]: the IC50 amounted to 4.16 nM in assay [1] and 10200 nM in assay [2].

Take `C[C@@H]1CCCCN1c1nc(NCc2nc3ccccc3[nH]2)n2ncc(Br)c2n1` [Example 140, N-[(1H-benzimidazol-2-yl)methyl]-8-bromo-2-[(2R)-2-methylpiperidin-1-yl]pyrazolo[1,5-a][1,3,5]triazin-4-amine]: the IC50 in assay [1] is 255 nM; in assay [2], 8150 nM.

With `[O-][S+]1CCN(c2nc(NCc3nc4ccccc4[nH]3)n3ncc(Br)c3n2)CC1` [Example 144, 4-(4-{[(1H-benzimidazol-2-yl)methyl]amino}-8-bromopyrazolo[1,5-a][1,3,5]triazin-2-yl)-1lambda^4-thiomorpholin-1-one], the results for the IC50 in assay [1] and in assay [2] were 110 nM and 3720 nM, respectively.

Consider `Brc1cnn2c(NCc3nc4ccccc4[nH]3)nc(N3CCN(C4CC4)CC3)nc12` [Example 138, N-[(1H-benzimidazol-2-yl)methyl]-8-bromo-2-(4-cyclopropylpiperazin-1-yl)pyrazolo[1,5-a][1,3,5]triazin-4-amine], for which the results for the IC50 in assay [1] and in assay [2] were 451 nM and greater than 20000 nM, respectively.

Take `Fc1cccc(-c2nnc(CNc3nc(N4CCNCC4)nc4c(Br)cnn34)[nH]2)c1` [Example 152, 8-bromo-N-{[5-(3-fluorophenyl)-4H-1,2,4-triazol-3-yl]methyl}-2-(piperazin-1-yl)pyrazolo[1,5-a][1,3,5]triazin-4-amine]: the IC50 was determined as 3.86 nM in assay [1] and 2990 nM in assay [2].

In the case of `Brc1cnn2c(NCc3nc4ccccc4[nH]3)nc(N3CCC3)nc12` [Example 143, 2-(azetidin-1-yl)-N-[(1H-benzimidazol-2-yl)methyl]-8-bromopyrazolo[1,5-a][1,3,5]triazin-4-amine], the IC50 is 306 nM in assay [1] and greater than 20000 nM in assay [2].

With `C[C@@H]1CN(c2nc(NCc3nc4c(F)cccc4[nH]3)n3ncc(Br)c3n2)C[C@H](C)O1` [Example 109, 8-bromo-2-[(2R,6S)-2,6-dimethylmorpholin-4-yl]-N-[(4-fluoro-1H-benzimidazol-2-yl)methyl]pyrazolo[1,5-a][1,3,5]triazin-4-amine], the IC50 in assay [1] worked out at 4.9 nM; in assay [2] it was 176 nM.

`Brc1cnn2c(NCc3nc4ccccc4[nH]3)nc(N3CCN4CCC[C@H]4C3)nc12` [Example 148, N-[(1H-benzimidazol-2-yl)methyl]-8-bromo-2-[(8aS)-hexahydropyrrolo[1,2-a]pyrazin-2 (1 H)-yl]pyrazolo[1,5-a][1,3,5]triazin-4-amine]: the IC50 in assay [1] was determined as 109 nM; in assay [2], 10800 nM.

As to `Cc1cccc2[nH]c(CNc3nc(N4CCN(C)CC4)nc4c(Br)cnn34)nc12` [Example 151, 8-bromo-N-[(4-methyl-1H-benzimidazol-2-yl)methyl]-2-(4-methylpiperazin-1-yl)pyrazolo[1,5-a][1,3,5]triazin-4-amine], the figures for the IC50 in assay [1] and in assay [2] were 24.7 nM and 4240 nM, respectively.

With `Brc1cnn2c(NCc3nc4ccccc4[nH]3)nc(N3CCN4CCC[C@@H]4C3)nc12` [Example 149, N-[(1H-benzimidazol-2-yl)methyl]-8-bromo-2-[(8aR)-hexahydropyrrolo[1,2-a]pyrazin-2 (1 H)-yl]pyrazolo[1,5-a][1,3,5]triazin-4-amine], the IC50 in assay [1] is 164 nM; in assay [2], 6220 nM.

On to `Fc1ccc(-c2nnc(CNc3nc(N4CCOCC4)nc4c(Br)cnn34)[nH]2)cc1F` [Example 99, 8-bromo-N-{[5-(3,4-difluorophenyl)-4H-1,2,4-triazol-3-yl]methyl}-2-(morpholin-4-yl)pyrazolo[1,5-a][1,3,5]triazin-4-amine], for which the results for the IC50 in assay [1] and in assay [2] were 54.7 nM and 1540 nM, respectively.

For `C[C@@H]1CN(c2nc(NCc3nc4ccccc4[nH]3)n3ncc(Br)c3n2)CCN1C` [Example 135, N-[(1H-benzimidazol-2-yl)methyl]-8-bromo-2-[(3R)-3,4-dimethylpiperazin-1-yl]pyrazolo[1,5-a][1,3,5]triazin-4-amine], the IC50 is 41.7 nM in assay [1] and 14500 nM in assay [2].

With `CN1CCN(c2nc(NCc3nc4c(F)cccc4[nH]3)n3ncc(Br)c3n2)CC1` [Example 126, 8-bromo-N-[(4-fluoro-1H-benzimidazol-2-yl)methyl]-2-(4-methylpiperazin-1-yl)pyrazolo[1,5-a][1,3,5]triazin-4-amine], the IC50 in assay [1] was 11 nM; in assay [2], 6830 nM.

Take `c1ccc(-c2cnn3c(NCc4nc5ccccc5[nH]4)nc(N4CCOCC4)nc23)cc1` [Example 104, N-[(1H-benzimidazol-2-yl)methyl]-2-(morpholin-4-yl)-8-phenylpyrazolo[1,5-a][1,3,5]triazin-4-amine]: the IC50 is 127 nM in assay [1] and greater than 20000 nM in assay [2].

In the case of `CN1CCN(c2nc(NCc3nc4cc(Cl)ccc4[nH]3)n3ncc(Br)c3n2)CC1` [Example 163, 8-bromo-N-[(5-chloro-1H-benzimidazol-2-yl)methyl]-2-(4-methylpiperazin-1-yl)pyrazolo[1,5-a][1,3,5]triazin-4-amine], the IC50 in assay [1] is 1.05 nM; in assay [2], greater than 5710 nM.

With `Clc1ccc2[nH]c(CNc3nc(N4CCOCC4)nc4c(Br)cnn34)nc2c1` [Example 162, 8-bromo-N-[(5-chloro-1H-benzimidazol-2-yl)methyl]-2-(morpholin-4-yl)pyrazolo[1,5-a][1,3,5]triazin-4-amine], the IC50 amounted to 1.55 nM in assay [1] and 1020 nM in assay [2].

`Cc1ccc2[nH]c(CNc3nc(N4CCOCC4)nc4c(Br)cnn34)nc2c1` [Example 157, 8-bromo-N-[(5-methyl-1H-benzimidazol-2-yl)methyl]-2-(morpholin-4-yl)pyrazolo[1,5-a][1,3,5]triazin-4-amine]: the results for the IC50 in assay [1] and in assay [2] were 1.78 nM and 676 nM, respectively.

Consider `Brc1cnn2c(NCc3nc4ccccc4[nH]3)nc(N3CCOCC3)nc12` [Example 4, N-[(1H-benzimidazol-2-yl)methyl]-8-bromo-2-(morpholin-4-yl)pyrazolo[1,5-a][1,3,5]triazin-4-amine], for which the IC50 in assay [1] turned out to be 12 nM; in assay [2], 1740 nM.

As to `Fc1cccc2[nH]c(CNc3nc(N4CCOCC4)nc4c(Br)cnn34)nc12` [Example 97, 8-bromo-N-[(4-fluoro-1H-benzimidazol-2-yl)methyl]-2-(morpholin-4-yl)pyrazolo[1,5-a][1,3,5]triazin-4-amine], the IC50 in assay [1] was 5.17 nM; in assay [2] it was 788 nM.

On to `C[C@@H]1CN(c2nc(NCc3nc4ccccc4[nH]3)n3ncc(Br)c3n2)C[C@H](C)N1C` [Example 129, N-(1H-benzimidazol-2-ylmethyl)-8-bromo-2-[(3R,5S)-3,4,5-trimethylpiperazin-1-yl]pyrazolo[1,5-a][1,3,5]triazin-4-amine], for which the IC50 in assay [1] is 125 nM; in assay [2] it was greater than 18200 nM.

Regarding `CC1(C)CN(c2nc(NCc3nc4ccccc4[nH]3)n3ncc(C4CC4)c3n2)CCO1` [Example 123, N-[(1H-benzimidazol-2-yl)methyl]-8-cyclopropyl-2-(2,2-dimethylmorpholin-4-yl)pyrazolo[1,5-a][1,3,5]triazin-4-amine], the IC50 in assay [1] is 83.2 nM; in assay [2] it was 12600 nM.

Regarding `Cc1ccc(-c2nnc(CNc3nc(N4CCOCC4)nc4c(Br)cnn34)[nH]2)cc1F` [Example 98, 8-bromo-N-{[5-(3-fluoro-4-methylphenyl)-4H-1,2,4-triazol-3-yl]methyl}-2-(morpholin-4-yl)pyrazolo[1,5-a][1,3,5]triazin-4-amine], the IC50 in assay [1] amounted to 116 nM; in assay [2], 1080 nM.

Consider `CC1CN(C)CCN1c1nc(NCc2nc3ccccc3[nH]2)n2ncc(Br)c2n1` (stereo not drawn) [Example 156, N-(1H-benzimidazol-2-ylmethyl)-8-bromo-2-(2,4-dimethylpiperazin-1-yl)pyrazolo[1,5-a][1,3,5]triazin-4-amine], for which the IC50 came to 5.45 nM in assay [1] and 9400 nM in assay [2].

In the case of `N=S1(=O)CCN(c2nc(NCc3nc4ccccc4[nH]3)n3ncc(Br)c3n2)CC1` [Example 145, 4-(4-{[(1H-benzimidazol-2-yl)methyl]amino}-8-bromopyrazolo[1,5-a][1,3,5]triazin-2-yl)-1-imino-1lambda^6-thiomorpholin-1-one], the results for the IC50 in assay [1] and in assay [2] were 223 nM and 12600 nM, respectively.

On to `COc1ccc2[nH]c(CNc3nc(N4CCOCC4)nc4c(Br)cnn34)nc2c1` [Example 160, 8-bromo-N-[(5-methoxy-1H-benzimidazol-2-yl)methyl]-2-(morpholin-4-yl)pyrazolo[1,5-a][1,3,5]triazin-4-amine], for which the results for the IC50 in assay [1] and in assay [2] were 6.5 nM and 1240 nM, respectively.
